Laboratory results: US20240238423A9, “TETRAHYDROISOQUINOLINE HETEROBIFUNCTIONAL BCL-XL DEGRADERS” (Treeline Biosciences, Inc., priority 2022, published 2024)
Where two headings read alike, the source gives them in different places.

Biological target: T1, Human BCL-XL protein (N-terminal HiBiT tagged BCL-XL in HT1080 cells) (Homo sapiens, UniProt Q07817)
T1 construct: expressed in transfected cells; host or cells: HT-1080 (ATCC CCL-121), stably transduced with lentivirus pLV-UBC-N-HiBiT-BCL-XL-PGK-puro and selected with puromycin
Assay: HiBiT based degradation assay
Format: cell-based
Conditions: HT1080 cells expressing HiBiT-BCL-XL; for Ymin (24 h) / Ymin (6 h): BCL-XL degradation normalized with DMSO control; for DC50: BCL-XL degradation
In short: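 HT1080 cells stably transduced by lentivirus with N-terminally HiBiT-tagged human BCL-XL and kept under 1 μg/mL puromycin selection were seeded at three thousand cells per well in 40 μL RPMI 1640 into 384-well plates pre-spotted with compounds across a concentration range. Luminescence was read on a PHERAstar FSX, normalized to DMSO, and fitted with a four-parameter logistic model.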

T1 sequence (Q07817 whole entry): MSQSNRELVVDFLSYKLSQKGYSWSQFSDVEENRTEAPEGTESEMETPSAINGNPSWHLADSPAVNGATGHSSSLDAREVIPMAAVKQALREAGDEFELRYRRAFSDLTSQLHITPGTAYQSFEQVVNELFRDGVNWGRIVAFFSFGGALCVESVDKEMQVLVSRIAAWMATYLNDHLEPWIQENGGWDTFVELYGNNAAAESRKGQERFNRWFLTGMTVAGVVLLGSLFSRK

Compound | Ymin (24 h) | DC50 (24 h, read-out: EC50 (24 h)) | Ymin (6 h) | DC50 (6 h, read-out: EC50 (6 h))
Cc1c(OCC[C@H]2CCN(CC(=O)Nc3cccc4c(C5CCC(=O)NC5=O)nn(C)c34)C2)cccc1-c1ccc(N2CCc3cccc(C(=O)Nc4nc5ccccc5s4)c3C2)nc1C(=O)O (stereo partly drawn) [Compound 231b, 6-[8-(1,3-benzothiazol-2-ylcarbamoyl)-3,4-dihydro-1H-isoquinolin-2-yl]-3-[3-[2-[(3R)-1-[2-[[3-(2,6-dioxo-3-piperidyl)-1-methyl-indazol-7-yl]amino]-2-oxo-ethyl]pyrrolidin-3-yl]ethoxy]-2-methyl-phenyl]pyridine-2-carboxylic acid] | B (50% ≤ Ymin < 70%) | < 100 nM | – | –
Cc1c(OCCC2CCN(CCN3CCN(c4cccc5c(C6CCC(=O)NC6=O)nn(C)c45)CC3)CC2)cccc1-c1ccc(N2CCc3cccc(C(=O)Nc4nc5ccccc5s4)c3C2)nc1C(=O)O (stereo not shown) [Compound 233, 6-[8-(1,3-benzothiazol-2-ylcarbamoyl)-3,4-dihydro-1H-isoquinolin-2-yl]-3-[3-[2-[1-[2-[4-[3-(2,6-dioxo-3-piperidyl)-1-methyl-indazol-7-yl]piperazin-1-yl]ethyl]-4-piperidyl]ethoxy]-2-methyl-phenyl]pyridine-2-carboxylic acid] | A (Ymin < 50%) | < 100 nM | – | –
Cc1c(OCCCN2CCC(CC(=O)Nc3ccc4c(C5CCC(=O)NC5=O)nn(C)c4c3)CC2)cccc1-c1ccc(N2CCc3cccc(C(=O)Nc4nc5ccccc5s4)c3C2)nc1C(=O)O (stereo not shown) [Compound 120, 6-[8-(1,3-benzothiazol-2-ylcarbamoyl)-3,4-dihydro-1H-isoquinolin-2-yl]-3-[3-[3-[4-[2-[[3-(2,6-dioxo-3-piperidyl)-1-methyl-indazol-6-yl]amino]-2-oxo-ethyl]-1-piperidyl]propoxy]-2-methyl-phenyl]pyridine-2-carboxylic acid] | B (50% ≤ Ymin < 70%) | < 100 nM | B (50% ≤ Ymin < 70%) | < 100 nM
Cc1c(OCCCN2CCN(CC3CCN(c4ccc5c(C6CCC(=O)NC6=O)nn(C)c5c4)CC3)CC2)cccc1-c1ccc(N2CCc3cccc(C(=O)Nc4nc5ccccc5s4)c3C2)nc1C(=O)O (stereo not shown) [Compound 189, 6-(8-(benzo[d]thiazol-2-ylcarbamoyl)-3,4-dihydroisoquinolin-2(1H)-yl)-3-(3-(3-(4-((1-(3-(2,6-dioxopiperidin-3-yl)-1-methyl-1H-indazol-6-yl)piperidin-4-yl)methyl)piperazin-1-yl)propoxy)-2-methylphenyl)picolinic acid] | A (Ymin < 50%) | < 100 nM | – | –
Cc1c(OCCO[C@H]2C[C@H]3CC[C@@H](C2)N3CC(=O)Nc2cccc3c(C4CCC(=O)NC4=O)nn(C)c23)cccc1-c1ccc(N2CCc3cccc(C(=O)Nc4nc5ccccc5s4)c3C2)nc1C(=O)O (stereo partly drawn) [Compound 224b, 6-(8-(benzo[d]thiazol-2-ylcarbamoyl)-3,4-dihydroisoquinolin-2(1H)-yl)-3-(3-(2-(((1R,3r,5S)-8-(2-((3-(2,6-dioxopiperidin-3-yl)-1-methyl-1H-indazol-7-yl)amino)-2-oxoethyl)-8-azabicyclo[3.2.1]octan-3-yl)oxy)ethoxy)-2-methylphenyl)picolinic acid] | B (50% ≤ Ymin < 70%) | < 100 nM | – | –
Cc1c(OCC2CC3(CCN(CCN4CCN(c5ccc6c(C7CCC(=O)NC7=O)nn(C)c6c5)CC4)CC3)C2)cccc1-c1ccc(N2CCc3cccc(C(=O)Nc4nc5ccccc5s4)c3C2)nc1C(=O)O (stereo not shown) [Compound 225, 6-(8-(benzo[d]thiazol-2-ylcarbamoyl)-3,4-dihydroisoquinolin-2(1H)-yl)-3-(3-((7-(2-(4-(3-(2,6-dioxopiperidin-3-yl)-1-methyl-1H-indazol-6-yl)piperazin-1-yl)ethyl)-7-azaspiro[3.5]nonan-2-yl)methoxy)-2-methylphenyl)picolinic acid] | A (Ymin < 50%) | < 100 nM | – | –
Cc1c(OCCC[C@H]2CCN(CC(=O)Nc3ccc4c(C5CCC(=O)NC5=O)nn(C)c4c3)CC2(F)F)cccc1-c1ccc(N2CCc3cccc(C(=O)Nc4nc5ccccc5s4)c3C2)nc1C(=O)O (stereo partly shown) [Compound 193b] | B (50% ≤ Ymin < 70%) | 100 to 1000 nM | – | –
Cc1c(OCCCCCCCCN2CCN(c3cccc4c(C5CCC(=O)NC5=O)nn(C)c34)CC2)cccc1-c1ccc(N2CCc3cccc(C(=O)Nc4nc5ccccc5s4)c3C2)nc1C(=O)O (stereo not shown) [Compound 217, 6-[8-(1,3-benzothiazol-2-ylcarbamoyl)-3,4-dihydro-1H-isoquinolin-2-yl]-3-[3-[8-[4-[3-(2,6-dioxo-3-piperidyl)-1-methyl-indazol-7-yl]piperazin-1-yl]octoxy]-2-methyl-phenyl]pyridine-2-carboxylic acid] | B (50% ≤ Ymin < 70%) | < 100 nM | B (50% ≤ Ymin < 70%) | < 100 nM
Cc1c(OCCC[C@@H]2CCN(CC(=O)Nc3cccc4c(C5CCC(=O)NC5=O)nn(C)c34)C2)cccc1-c1ccc(N2CCc3cccc(C(=O)Nc4nc5ccccc5s4)c3C2)nc1C(=O)O (stereo partly drawn) [Compound 240a, 6-[8-(1,3-benzothiazol-2-ylcarbamoyl)-3,4-dihydro-1H-isoquinolin-2-yl]-3-[3-[3-[(3R)-1-[2-[[3-(2,6-dioxo-3-piperidyl)-1-methyl-indazol-7-yl]amino]-2-oxo-ethyl]pyrrolidin-3-yl]propoxy]-2-methyl-phenyl]pyridine-2-carboxylic acid] | B (50% ≤ Ymin < 70%) | < 100 nM | – | –

The next lines start with results.

Ymin (24 h) | DC50 (24 h, read-out: EC50 (24 h)) | Compound | Ymin (6 h) | DC50 (6 h, read-out: EC50 (6 h))
A (Ymin < 50%) | < 100 nM | Cc1cc2c(C3CCC(=O)NC3=O)nn(C)c2cc1N1CCN(CCC[C@H]2CC[C@H](Oc3cccc(-c4ccc(N5CCc6cccc(C(=O)Nc7nc8ccccc8s7)c6C5)nc4C(=O)O)c3C)CC2)CC1 (stereo partly shown) [Compound 335a, 6-(8-(benzo[d]thiazol-2-ylcarbamoyl)-3,4-dihydroisoquinolin-2(1H)-yl)-3-(3-(((1s,4r)-4-(3-(4-(3-(2,6-dioxopiperidin-3-yl)-1,5-dimethyl-1H-indazol-6-yl)piperazin-1-yl)propyl)cyclohexyl)oxy)-2-methylphenyl)picolinic acid] | – | –
A (Ymin < 50%) | < 100 nM | Cc1c(O[C@H]2CC[C@H](CCCN3CCN(c4ccc5c(C6CCC(=O)NC6=O)nn(C)c5c4)C[C@H]3C)CC2)cccc1-c1ccc(N2CCc3cccc(C(=O)Nc4nc5ccccc5s4)c3C2)nc1C(=O)O (stereo partly drawn) [Compound 273a, 6-(8-(benzo[d]thiazol-2-ylcarbamoyl)-3,4-dihydroisoquinolin-2(1H)-yl)-3-(3-(((1S,4r)-4-(3-((2R)-4-(3-(2,6-dioxopiperidin-3-yl)-1-methyl-1H-indazol-6-yl)-2-methylpiperazin-1-yl)propyl)cyclohexyl)oxy)-2-methylphenyl)picolinic acid] | – | –
A (Ymin < 50%) | < 100 nM | Cc1c(O[C@H]2CC[C@H](CCCN3CCN(c4ccc5c(C6CCC(=O)NC6=O)nn(C)c5c4)C[C@H]3C(F)(F)F)CC2)cccc1-c1ccc(N2CCc3cccc(C(=O)Nc4nc5ccccc5s4)c3C2)nc1C(=O)O (stereo partly drawn) [Compound 347b, 6-(8-(benzo[d]thiazol-2-ylcarbamoyl)-3,4-dihydroisoquinolin-2(1H)-yl)-3-(3-(((1r,4r)-4-(3-((2S)-4-(3-(2,6-dioxopiperidin-3-yl)-1-methyl-1H-indazol-6-yl)-2-(trifluoromethyl)piperazin-1-yl)propyl)cyclohexyl)oxy)-2-methylphenyl)picolinic acid] | – | –
A (Ymin < 50%) | < 100 nM | Cc1cc(O[C@H](C)CCC2CCN(CC(=O)Nc3ccc4c(C5CCC(=O)NC5=O)nn(C)c4c3)CC2)ccc1-c1ccc(N2CCc3cccc(C(=O)Nc4nc5ccccc5s4)c3C2)nc1C(=O)O (stereo in doubt) [Compound 276a, 6-[8-(1,3-benzothiazol-2-ylcarbamoyl)-3,4-dihydro-1H-isoquinolin-2-yl]-3-[4-[(1R)-3-[1-[2-[[3-(2,6-dioxo-3-piperidyl)-1-methyl-indazol-6-yl]amino]-2-oxo-ethyl]-4-piperidyl]-1-methyl-propoxy]-2-methyl-phenyl]pyridine-2-carboxylic acid] | – | –
A (Ymin < 50%) | < 100 nM | Cc1c(O[C@H]2CC[C@H](CCCN3CCN(c4ccc5c(C6CCC(=O)NC6=O)nn(C)c5c4)C(C)(C)C3)CC2)cccc1-c1ccc(N2CCc3cccc(C(=O)Nc4nc5ccccc5s4)c3C2)nc1C(=O)O (stereo partly shown) [Compound 318a, 6-(8-(benzo[d]thiazol-2-ylcarbamoyl)-3,4-dihydroisoquinolin-2(1H)-yl)-3-(3-(((1s,4r)-4-(3-(4-(3-(2,6-dioxopiperidin-3-yl)-1-methyl-1H-indazol-6-yl)-3,3-dimethylpiperazin-1-yl)propyl)cyclohexyl)oxy)-2-methylphenyl)picolinic acid] | – | –
C (Ymin ≥ 70%) | < 100 nM | Cc1cc(OC[C@@H](C)CC2CCN(CC(=O)Nc3ccc4c(C5CCC(=O)NC5=O)nn(C)c4c3)CC2)ccc1-c1ccc(N2CCc3cccc(C(=O)Nc4nc5ccccc5s4)c3C2)nc1C(=O)O (stereo in doubt) [Compound 271b, 6-(8-(benzo[d]thiazol-2-ylcarbamoyl)-3,4-dihydroisoquinolin-2(1H)-yl)-3-(4-((2S)-3-(1-(2-((3-(2,6-dioxopiperidin-3-yl)-1-methyl-1H-indazol-6-yl)amino)-2-oxoethyl)piperidin-4-yl)-2-methylpropoxy)-2-methylphenyl)picolinic acid] | – | –
